Laboratory results published in publication PMC8795197, “Safety and activity of WX-0593 (Iruplinalkib) in patients with ALK- or ROS1-rearranged advanced non-small cell lung cancer: a phase 1 dose-escalation and dose-expansion trial” (Signal Transduction and Targeted Therapy, 2022).

Key:
[1] = Single-dose toxicity study (acute toxicity)
[2] = in vivo; settings: male
[3] = test system: LU-01-0319R NSCLC PDX; assay: PDX model resistant to crizotinib; format: in vivo
[4] = test system: advanced NSCLC patients with ALK or ROS1 rearrangement; assay: Phase 1 dose-escalation phase: antitumor activity (RECIST 1.1, investigators); format: in vivo, human
Method: The starting dose for WX-0593 was 30 mg, which was selected on the basis of preclinical toxicology studies (data unpublished), according to the International Conference on Harmonisation Guidance for Industry S9 Nonclinical Evaluation for Anticancer Pharmaceuticals.[30] Three patients were assigned to each dose level. In the dosing cohort of 30 mg, treatment included a single WX-0593 dose, followed by 7-day PK evaluation period, and subsequent daily oral dosing for continuous 21 days. In other dosing cohorts, WX-0593 was administered orally as a single dose in the 4-day PK run-in period, followed by dosing once per day in continuous 21-day cycles. The DLT observation period was the first cycle of WX-0593 treatment (the single-dose period and 21 days of multiple-dose period). Patients performed imaging evaluation at baseline, with computed tomography or magnetic resonance imaging of the chest, abdomen, pelvis, and brain. In the dose-escalation phase, the first efficacy evaluation was done after 3-week continuous administration of WX-0593 and every 6 weeks thereafter. […] If responses (CR or PR) were observed, repeat assessments were required to confirm the responses 4 weeks after the initial evaluation. […] AEs were assessed in all patients throughout this study and graded per the National Cancer Institute Common Terminology Criteria for Adverse Events version 4.03. In the dose-escalation phase, the primary endpoints were MTD, DLT, and safety assessed by investigators and the subsequent recommended dose of WX-0593. Safety parameters included TEAEs, SAEs, and TRAEs. The key secondary endpoints were PK parameters and preliminary antitumor activity of WX-0593. ORR was defined as the proportion of patients who had best overall response, including CR or PR. PFS was calculated from the date of the first dose of WX-0593 to the date of documented disease progression or death (whichever occurred first). DCR was defined as the proportion of patients who had best overall response, including CR, PR, or SD, with a duration of at least 12 weeks. TTP was calculated from the date when the first dose of WX-0593 was given to first documented disease progression. […] OS was calculated from the date when the first dose of WX-0593 was administered to the date of death from any cause. Safety analysis was performed in the SS, which was comprised of all patients treated with one dose of WX-0593 and with safety data recorded. Efficacy analysis was performed in the FAS, which was defined as all patients treated with at least one dose of WX-0593. The PK analysis set included all patients treated with at least one dose of WX-0593 and with at least one evaluable PK sample. […] Descriptive statistics were carried out to summarize patients’ baseline characteristics and safety. […] All time-to-event data (PFS, TTP, DOR, and OS) and their corresponding 95% CIs were estimated by Kaplan–Meier methods. PK parameter analyses were done with Phoenix WinNonlin version 8.0. All other statistical analyses were conducted using SAS version 9.4.

[5] = test system: 21 GPCR targets; assay: GPCR agonist screening assay; format: cell-based; settings: all 21 GPCR targets
Excerpt: In the agonist screening assay, the activity percent at maximum dose of WX-0593 was all less than 50% for the 21 GPCR targets tested.

SMILES: COc1cc(N2CCC3(CCN(C)CC3)CC2)ccc1Nc1ncc(Cl)c(Nc2ccccc2P(C)(C)=O)n1 [WX-0593]
- drug exposure at MTD as multiple of that at the effective dose ([1]; female animals): 13.7 times
- drug exposure at MTD as multiple of that at the effective dose ([1]; male animals): 9.5 times
- MTD [2]: 200 mg/kg
- anti-tumor effect ([3]; WX-0593 2.5, 5, 10 mg/kg, ceritinib 10/20 mg/kg, brigatinib 10 mg/kg): significant anti-tumor effects
- body weight ([3]; all treatment arms): no significant decrease in weight
- ORR (n/N, 95%CI) ([4]; ALK TKI naive, dose: 30, 60, 90, 120, 180, 240, 300 mg, 30 mg): 66.7% (2/3, 9.4-99.2%)
- ORR (n/N, 95%CI) ([4]; ALK TKI naive, dose: 30, 60, 90, 120, 180, 240, 300 mg, 90 mg): 50.0% (1/2, 1.3-98.7%)
- ORR (n/N, 95%CI) ([4]; ALK TKI naive, dose: 30, 60, 90, 120, 180, 240, 300 mg, 120 mg): 75.0% (6/8, 34.9-96.8%)
- ORR (n/N, 95%CI) ([4]; ALK TKI naive, dose: 30, 60, 90, 120, 180, 240, 300 mg, 180 mg): 83.3% (5/6, 35.9-99.6%)
- ORR (n/N, 95%CI) ([4]; ALK TKI naive, dose: 30, 60, 90, 120, 180, 240, 300 mg, 240 mg): 60.0% (3/5, 14.7-94.7%)
- ORR (n/N, 95%CI) ([4]; ALK TKI naive, dose: 30, 60, 90, 120, 180, 240, 300 mg, 300 mg): 100.0% (1/1, 2.5-100.0%)
- DCR ([4]; ALK-rearranged patients): 89.1%
- ORR (n/N, 95%CI) ([4]; ALK-rearranged patients, total): 63.0%
- ORR (n/N, 95%CI) ([4]; ALK-rearranged, ALK TKI naive, dose: 30, 60, 90, 120, 180, 240, 300 mg, 30 mg): 100% (2/2, 15.8-100%)
- ORR (n/N, 95%CI) ([4]; ALK-rearranged, ALK TKI naive, dose: 30, 60, 90, 120, 180, 240, 300 mg, 60 mg): 66.7% (2/3, 9.4-99.2%)
- ORR (n/N, 95%CI) ([4]; ALK-rearranged, ALK TKI naive, dose: 30, 60, 90, 120, 180, 240, 300 mg, 120 mg): 85.7% (6/7, 42.1-99.6%)
- ORR (n/N, 95%CI) ([4]; ALK-rearranged, ALK TKI naive, dose: 30, 60, 90, 120, 180, 240, 300 mg, 180 mg): 75.0% (3/4, 19.4-99.4%)
- ORR (n/N, 95%CI) ([4]; ALK-rearranged, ALK TKI naive, dose: 30, 60, 90, 120, 180, 240, 300 mg, 300 mg): 100% (1/1, 2.5-100%)
- ORR (n/N, 95%CI) ([4]; ALK-rearranged, crizotinib and other ALK TKIs, dose: 30, 60, 90, 120, 180, 240, 300 mg, 120 mg): 100% (1/1, 2.5-100%)
- ORR (n/N, 95%CI) ([4]; ALK-rearranged, crizotinib and other ALK TKIs, total): 100% (3/3, 29.2- 100%)
- ORR (n/N, 95%CI) ([4]; ALK-rearranged, crizotinib only, total): 40.0% (8/20, 19.1-63.9%)
- DCR ([4]; ROS1-rearranged patients): 80.0%
- ORR (n/N, 95%CI) ([4]; ROS1-rearranged, crizotinib and other ALK TKIs, dose: 30, 60, 90, 120, 180, 240, 300 mg, 90 mg): 0% (0/1, 0-97.5%)
- ORR (n/N, 95%CI) ([4]; ROS1-rearranged, crizotinib and other ALK TKIs, total): 0% (0/2, 0-84.2%)
- ORR (n/N, 95%CI) ([4]; ROS1-rearranged, crizotinib only, dose: 30, 60, 90, 120, 180, 240, 300 mg, 90 mg): 0% (0/1, 0-97.5%)
- ORR (n/N, 95%CI) ([4]; ROS1-rearranged, crizotinib only, total): 0% (0/3, 0-70.8%)
- median PFS ([4]; ROS1 rearrangement, crizotinib-naive (n = 7)): 3.65 months
- ORR (n/N, 95%CI) ([4]; baseline CNS metastasis, total): 9.1% (2/22, 1.1-29.2%)
- ORR (n/N, 95%CI) ([4]; baseline measurable CNS metastasis, total): 33.3% (2/6,4.3-77.7%)
- ORR (n/N, 95%CI) ([4]; prior crizotinib and other ALK TKI, dose: 30, 60, 90, 120, 180, 240, 300 mg, 120 mg): 100% (1/1, 2.5-100%)
- ORR (n/N, 95%CI) ([4]; prior crizotinib and other ALK TKI, total): 100% (3/3, 29.2-100%)
- DOR, median (95% CI) ([4]; total (n=54)): 10.87 (10.87, NR) mo
- PFS, median (95% CI) ([4]; total (n=54)): 11.89 (5.03, 11.89) mo
- TTP, median (95% CI) ([4]; total (n=54)): 11.89 (6.44, 11.89) mo
- activity percent at maximum dose (agonist) [5]: less than 50%
- EC50 ([5]; highest dose detected): > 133 µM
